From patent US12037344B2, “NLRP3 modulators” (INNATE TUMOR IMMUNITY, INC., priority 2018, dated 2024) come the findings set out here.

Where two headings read alike, the source gives them in different places.

One may read the EC50 as the concentration at which the effect is half-maximal.

In one assay the target is T1, TLR8 (Homo sapiens, UniProt Q9NR97).
T1 construct: human HEK-Blue cells co-expressing a TLR7 or TLR8 gene
T1 sequence (Q9NR97 27-1041): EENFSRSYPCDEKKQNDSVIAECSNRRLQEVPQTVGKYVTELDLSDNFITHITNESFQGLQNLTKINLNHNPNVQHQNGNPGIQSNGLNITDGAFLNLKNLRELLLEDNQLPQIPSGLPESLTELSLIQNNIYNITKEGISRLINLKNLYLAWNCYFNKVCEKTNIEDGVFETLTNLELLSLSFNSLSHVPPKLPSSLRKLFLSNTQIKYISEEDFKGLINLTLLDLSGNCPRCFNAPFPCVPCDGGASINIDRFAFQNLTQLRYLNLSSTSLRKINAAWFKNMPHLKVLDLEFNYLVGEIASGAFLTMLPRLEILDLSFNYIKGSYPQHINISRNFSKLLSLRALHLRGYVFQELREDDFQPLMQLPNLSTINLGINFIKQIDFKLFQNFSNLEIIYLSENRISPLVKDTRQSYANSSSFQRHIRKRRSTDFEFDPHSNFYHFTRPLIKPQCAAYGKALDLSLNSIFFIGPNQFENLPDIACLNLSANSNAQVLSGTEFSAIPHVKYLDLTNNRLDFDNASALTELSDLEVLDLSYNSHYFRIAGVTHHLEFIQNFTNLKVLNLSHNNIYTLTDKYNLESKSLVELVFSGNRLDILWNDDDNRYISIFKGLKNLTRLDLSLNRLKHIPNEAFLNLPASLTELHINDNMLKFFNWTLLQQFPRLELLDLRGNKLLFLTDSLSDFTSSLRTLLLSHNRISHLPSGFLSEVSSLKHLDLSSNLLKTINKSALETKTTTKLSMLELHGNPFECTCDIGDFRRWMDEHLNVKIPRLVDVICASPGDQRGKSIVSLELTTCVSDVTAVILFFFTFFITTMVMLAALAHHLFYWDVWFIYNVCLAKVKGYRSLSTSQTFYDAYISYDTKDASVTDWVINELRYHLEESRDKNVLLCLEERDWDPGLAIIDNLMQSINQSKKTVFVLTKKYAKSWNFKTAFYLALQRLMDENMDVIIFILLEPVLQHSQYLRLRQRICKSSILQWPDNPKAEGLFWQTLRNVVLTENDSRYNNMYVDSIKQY
Put plainly: In vitro human TLR8 binding reporter assay (HEK-Blue, NF-kB/AP1-inducible SEAP). It counts as cell-based. Particulars: read-out: TLR8 Agonist EC50. The gist of the method: (§1)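 HEK-Blue cells expressing human TLR7 or TLR8 with NF-kB/AP1-inducible SEAP reporter, plated 24 h, then compound-treated 18 h at 37° C, 5% CO2. EC50 normalized to 100% Ymax set by 50 μM reference standard.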

The subject of the next assay is THP-1 cells. Nature of the assay: Measurement of IL-1β production, hTRF protocol (second alternative procedure), THP-1 cells. It counts as cell-based, human. Particulars: Homo sapiens, THP-1, IL-1β production, read-out: NLRP3 hILIB EC50. In a few lines:
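Compounds, dilution series starting at a final 10 μM, were incubated 2 hours at 37° C with PMA-differentiated THP-1 cells (50 ng/ml overnight; 50,000 cells/well, 2% FBS RPMI). Released IL-1β quantified in supernatant by hTRF kit with 1:40 antibody dilution, 4° C overnight, 665/615 nm ratio.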

In the next assay the target is T2, TLR7 (Homo sapiens, UniProt Q9NYK1).
T2 construct: human HEK-Blue cells co-expressing a TLR7 or TLR8 gene
T2 sequence (Q9NYK1 27-1049): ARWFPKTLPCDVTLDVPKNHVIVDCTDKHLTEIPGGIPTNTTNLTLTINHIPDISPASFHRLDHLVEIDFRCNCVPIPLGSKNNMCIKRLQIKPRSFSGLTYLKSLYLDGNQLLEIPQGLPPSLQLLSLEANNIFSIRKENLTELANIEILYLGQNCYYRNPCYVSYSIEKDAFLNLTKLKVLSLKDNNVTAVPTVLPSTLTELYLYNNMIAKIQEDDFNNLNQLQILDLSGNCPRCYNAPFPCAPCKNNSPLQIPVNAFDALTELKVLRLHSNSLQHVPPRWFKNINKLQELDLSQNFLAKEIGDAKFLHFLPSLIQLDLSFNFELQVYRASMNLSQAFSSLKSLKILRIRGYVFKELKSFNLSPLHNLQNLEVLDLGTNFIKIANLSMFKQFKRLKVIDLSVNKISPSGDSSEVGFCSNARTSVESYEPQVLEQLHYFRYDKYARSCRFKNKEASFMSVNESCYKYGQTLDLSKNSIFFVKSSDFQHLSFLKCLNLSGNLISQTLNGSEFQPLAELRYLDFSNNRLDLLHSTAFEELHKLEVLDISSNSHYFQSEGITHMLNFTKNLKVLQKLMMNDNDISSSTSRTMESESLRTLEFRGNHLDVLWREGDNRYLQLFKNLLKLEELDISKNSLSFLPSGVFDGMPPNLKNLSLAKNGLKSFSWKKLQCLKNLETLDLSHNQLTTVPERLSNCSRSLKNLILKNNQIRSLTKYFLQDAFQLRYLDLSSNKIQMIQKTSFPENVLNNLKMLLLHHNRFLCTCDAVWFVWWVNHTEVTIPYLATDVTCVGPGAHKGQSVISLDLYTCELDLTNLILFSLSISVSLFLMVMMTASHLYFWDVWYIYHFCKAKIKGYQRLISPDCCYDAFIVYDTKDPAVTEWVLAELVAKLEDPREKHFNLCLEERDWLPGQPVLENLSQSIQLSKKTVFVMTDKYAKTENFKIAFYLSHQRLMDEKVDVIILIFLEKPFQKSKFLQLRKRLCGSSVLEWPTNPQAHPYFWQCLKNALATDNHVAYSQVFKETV
Nature of the assay: In vitro human TLR7 binding reporter assay (HEK-Blue, NF-kB/AP1-inducible SEAP). The conditions noted are these: read-out: TLR7 Agonist EC50. It counts as cell-based. In a few lines: as §1
In general terms: Reporter assays use an easily measured gene product as a stand-in for the process of interest.

In the case of `CC(C)(C)OC(=O)NCCn1cc2c(n1)c(N)nc1cc(-c3cc[nH]n3)ccc12` [Example 118, tert-butyl N-{2-[4-amino-7-(1H-pyrazol-3-yl)-2H-pyrazolo[3,4-c]quinolin-2-yl]ethyl}carbamate], the 50% effective concentration (EC50) at TLR8 (activity range class) is greater than 100 µM; with THP-1 cells (human), 860 nM; at TLR7 (activity range class), greater than 100 µM.
Consider `CC(Cn1cc2c(n1)c(N)nc1cc(-c3cc[nH]n3)ccc12)C(=O)N1CCOCC1` (stereo not drawn) [Example 539], for which the concentration giving a half-maximal response (EC50) on TLR8 (activity range) was greater than 100 µM; in the assay with THP-1 cells (human cells), 18500 nM; at TLR7 (activity range), greater than 100 µM.
For `Nc1nc2cc(-c3cc[nH]n3)ccc2c2[nH]c(CN3CC[C@@H](O)C3)cc12` [Example 480], the concentration for a half-maximal effect (EC50) on TLR8 (activity range) was greater than 100 µM; in the assay with THP-1 cells (human cells) it was 260 nM; on TLR7 (activity range), greater than 100 µM.
Take `Cc1csc(C(=O)NCCn2cc3c(n2)c(N)nc2cc(-c4cc[nH]n4)ccc23)n1` [Example 96]: the half-maximal effective concentration (EC50) on TLR8 (activity range class) was 20 to 100 µM; in the assay with THP-1 cells (human), 310 nM; at TLR7 (activity range class), greater than 100 µM.
On the same counts, the results for `N#CC1(C(=O)NCCn2cc3c(N)nc4cc(-c5cc[nH]n5)ccc4c3n2)CC1` [Example 291] are greater than 100 µM, 4650 nM and greater than 100 µM.
On the same counts, the results for `COCCn1nc2c(N)nc3cc(-c4ccn[nH]4)ccc3c2n1` [Example 162] are greater than 100 µM, 1220 nM and greater than 100 µM.
On to `CCn1c(CCCO)cc2c(N)nc3cc(-c4ccn[nH]4)ccc3c21` [Example 449], for which the values for the concentration for a half-maximal effect (EC50) on TLR8 (activity range), in the assay with THP-1 cells (human cells) and on TLR7 (activity range) were greater than 100 µM, 700 nM and greater than 100 µM, respectively.
On to `Nc1nc2cc(-c3cc[nH]n3)ccc2c2cn(Cc3nc(-c4ccccc4)no3)nc12` [Example 169], for which the concentration giving a half-maximal response (EC50) at TLR8 (activity range class) was 20 to 100 µM; in the assay on THP-1 cells (human) it was 390 nM; at TLR7 (activity range class) it was greater than 100 µM.
Take `COCCNC(=O)Cn1cc2c(n1)c(N)nc1cc(-c3cc[nH]n3)ccc12` [Example 536]: the EC50 is greater than 100 µM on TLR8 (activity range), 3580 nM in the assay on THP-1 cells (human cells) and greater than 100 µM at TLR7 (activity range).
`CC(C)(Cn1cc2c(N)nc3cc(-c4ccn[nH]4)ccc3c2n1)C(=O)N1CC(O)C1` [Example 597]: the EC50 is greater than 100 µM on TLR8 (activity range), 8700 nM in the assay on THP-1 cells (human cells) and greater than 100 µM at TLR7 (activity range).
For `COC1CCCN(CCn2cc3c(N)nc4cc(-c5ccn[nH]5)ccc4c3n2)C1` (stereo not drawn) [Example 265], the EC50 on TLR8 (activity range class) was greater than 100 µM; in the assay with THP-1 cells (human), 2470 nM; at TLR7 (activity range class) it was greater than 100 µM.
Regarding `CC(C)(Cn1cc2c(N)nc3cc(-c4ccn[nH]4)ccc3c2n1)C(=O)NCCS(C)(=O)=O` [Example 609], the EC50 on TLR8 (activity range) was greater than 100 µM; with THP-1 cells (human cells) it was 18100 nM; at TLR7 (activity range), greater than 100 µM.
With `CO[C@@H](CO)Cn1cc2c(N)nc3cc(-n4cccn4)ccc3c2n1` [Example 388], the EC50 at TLR8 (activity range class) is greater than 100 µM; in the assay on THP-1 cells (human) it was 310 nM; at TLR7 (activity range class), greater than 100 µM.
For the molecule `Nc1nc2cc(-c3ccn[nH]3)ccc2c2nn(CCN3CCOCC3)cc12` [Example 260], the figures for the EC50 on TLR8 (activity range class), with THP-1 cells (human) and at TLR7 (activity range class) were greater than 100 µM, 5760 nM and greater than 100 µM, respectively.
Take `Nc1nc2cc(-n3cccn3)ccc2c2cn(C[C@H]3CCC(=O)N3)nc12` [Example 16]: the 50% effective concentration (EC50) is greater than 100 µM on TLR8 (activity range class), 11300 nM in the assay on THP-1 cells (human) and 20 to 100 µM on TLR7 (activity range class).
The like results for `Nc1nc2cc(-c3cc[nH]n3)ccc2c2cn(CCNC(=O)c3cccnc3)nc12` [Example 38] were, in that order, greater than 100 µM, 4930 nM and greater than 100 µM.
On the same counts, the results for `Nc1nc2cc(-c3cc[nH]n3)ccc2c2cn(CCc3ccccn3)nc12` [Example 163] are greater than 100 µM, 60 nM and greater than 100 µM.
On the same counts, the results for `Nc1nc2cc(-n3cccn3)ccc2c2nn(CCCO)cc12` [Example 251, 3-(4-amino-7-(1H-pyrazol-1-yl)-2H-pyrazolo[4,3-c]quinolin-2-yl)propan-1-ol] are greater than 100 µM, 620 nM and greater than 100 µM.
For the molecule `CC(C)(C(=O)NCCO)n1cc2c(N)nc3cc(-c4cc[nH]n4)ccc3c2n1` [Example 521], the half-maximal effective concentration (EC50) at TLR8 (activity range) was greater than 100 µM; with THP-1 cells (human cells), 5670 nM; on TLR7 (activity range), greater than 100 µM.
Turning to `CC(=O)NCCn1cc2c(N)nc3cc(-c4cc[nH]n4)ccc3c2n1` [Example 290], the concentration for a half-maximal effect (EC50) on TLR8 (activity range class) was greater than 100 µM; in the assay on THP-1 cells (human), 870 nM; at TLR7 (activity range class), greater than 100 µM.
Consider `CC(C)(Cn1cc2c(N)nc3cc(-c4ccn[nH]4)ccc3c2n1)C(=O)NCC(F)F` [Example 596], for which the concentration giving a half-maximal response (EC50) is greater than 100 µM on TLR8 (activity range), 10100 nM with THP-1 cells (human cells) and greater than 100 µM at TLR7 (activity range).
For `CN1CCOC(C(=O)NCCn2cc3c(n2)c(N)nc2cc(-c4cc[nH]n4)ccc23)C1` (single isomer, unassigned) [Example 179], the results for the concentration for a half-maximal effect (EC50) at TLR8 (activity range class), in the assay with THP-1 cells (human) and on TLR7 (activity range class) were greater than 100 µM, 25800 nM and greater than 100 µM, respectively.
Turning to `Nc1nc2cc(-c3cc[nH]n3)ccc2c2cn(CCNC(=O)c3cnco3)nc12` [Example 84], the 50% effective concentration (EC50) on TLR8 (activity range class) is greater than 100 µM; in the assay on THP-1 cells (human), 1790 nM; on TLR7 (activity range class), greater than 100 µM.
Take `CC(=O)NCc1cc2c(N)nc3cc(-c4ccn[nH]4)ccc3c2[nH]1` [Example 443]: the values for the EC50 at TLR8 (activity range), in the assay on THP-1 cells (human cells) and at TLR7 (activity range) were greater than 100 µM, 230 nM and greater than 100 µM, respectively.
Turning to `COCC(C)n1cc2c(N)nc3cc(-c4cc[nH]n4)ccc3c2n1` (single isomer, unassigned) [Example 337], the EC50 on TLR8 (activity range class) is greater than 100 µM; in the assay on THP-1 cells (human), 220 nM; at TLR7 (activity range class) it was greater than 100 µM.
With `Nc1nc2cc(-c3cc[nH]n3)ccc2c2cn(CCNC(=O)c3cc(F)ccn3)nc12` [Example 54], the EC50 is greater than 100 µM on TLR8 (activity range class), 190 nM with THP-1 cells (human) and 20 to 100 µM at TLR7 (activity range class).
`NC(=O)CCn1cc2c(N)nc3cc(-n4cccn4)ccc3c2n1` [Example 558]: the figures for the concentration giving a half-maximal response (EC50) at TLR8 (activity range), in the assay on THP-1 cells (human cells) and on TLR7 (activity range) were greater than 100 µM, 630 nM and greater than 100 µM, respectively.
On to `CN(C)CCc1cc2c(N)nc3cc(-c4ccn[nH]4)ccc3c2[nH]1` [Example 153, 2-[2-(dimethylamino)ethyl]-7-(1H-pyrazol-5-yl)-1H-pyrrolo[3,2-c]quinolin-4-amine], for which the concentration giving a half-maximal response (EC50) on TLR8 (activity range class) was greater than 100 µM; with THP-1 cells (human) it was 700 nM; at TLR7 (activity range class), greater than 100 µM.
